According to PubChem BioAssay AID248 (DTP/NCI, 2004):
Several values for one entry are separate records, joined by “and”; a condition that tells them apart may be missing. Equal values may be shown once. Toxic doses and inconclusive results are not listed. Cut-off read from the data, not from the text of the source: active = T/C of 150% or more; inactive = T/C below 125%.

Test system: L1210 leukemia ip in BDF1 mice, survival T/C
Experiment: NCI In Vivo Anticancer Drug Screen. Data for tumor model L1210 Leukemia (intraperitoneal) in B6D2F1 (BDF1) mice
Conditions: endpoint: mean survival time, higher = longer survival
Procedure, shortened: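 Each compound was tested against a transplantable tumor grown in mice. The endpoint was survival, with treated animals benchmarked against vehicle controls as a simple ratio.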

[1] = dose: 100.0 mg/kg/injection, schedule: Q01DX001 (ip), vehicle: saline with Tween-80
[2] = dose: 100.0 mg/kg/injection, schedule: Q01DX009 (ip), vehicle: saline with Tween-80
[3] = dose: 100.0 mg/kg/injection, schedule: Q04DX003 (ip), vehicle: saline with Tween-80
[4] = dose: 200.0 mg/kg/injection, schedule: Q01DX001 (ip), vehicle: saline with Tween-80
[5] = dose: 200.0 mg/kg/injection, schedule: Q01DX009 (ip), vehicle: saline with Tween-80
[6] = dose: 200.0 mg/kg/injection, schedule: Q04DX003 (ip), vehicle: saline with Tween-80
[7] = dose: 400.0 mg/kg/injection, schedule: Q01DX009 (ip), vehicle: saline with Tween-80
[8] = dose: 100.0 mg/kg/injection, schedule: Q01DX001 (ip), vehicle: saline
[9] = dose: 100.0 mg/kg/injection, schedule: Q04DX002 (ip), vehicle: saline
[10] = dose: 200.0 mg/kg/injection, schedule: Q01DX001 (ip), vehicle: saline
[11] = dose: 200.0 mg/kg/injection, schedule: Q04DX002 (ip), vehicle: saline
[12] = dose: 400.0 mg/kg/injection, schedule: Q04DX003 (ip), vehicle: saline with Tween-80
[13] = dose: 100.0 mg/kg/injection, schedule: Q04DX003 (ip), vehicle: saline
[14] = dose: 200.0 mg/kg/injection, schedule: Q04DX003 (ip), vehicle: saline
[15] = dose: 400.0 mg/kg/injection, schedule: Q01DX001 (ip), vehicle: saline
[16] = dose: 400.0 mg/kg/injection, schedule: Q04DX003 (ip), vehicle: saline
[17] = dose: 200.0 mg/kg/injection, schedule: Q04DX002 (ip), vehicle: Klucel (hydroxypropylcellulose) (HPC)
[18] = dose: 400.0 mg/kg/injection, schedule: Q04DX002 (ip), vehicle: Klucel (hydroxypropylcellulose) (HPC)
[19] = dose: 100.0 mg/kg/injection, schedule: Q04DX002 (ip), vehicle: Klucel (hydroxypropylcellulose) (HPC)
[20] = dose: 100.0 mg/kg/injection, schedule: Q01DX009 (ip), vehicle: Klucel (hydroxypropylcellulose) (HPC)
[21] = dose: 200.0 mg/kg/injection, schedule: Q01DX009 (ip), vehicle: Klucel (hydroxypropylcellulose) (HPC)
[22] = dose: 400.0 mg/kg/injection, schedule: Q01DX009 (ip), vehicle: Klucel (hydroxypropylcellulose) (HPC)
[23] = dose: 100.0 mg/kg/injection, schedule: Q04DX003 (ip), vehicle: Klucel (hydroxypropylcellulose) (HPC)
[24] = dose: 200.0 mg/kg/injection, schedule: Q04DX003 (ip), vehicle: Klucel (hydroxypropylcellulose) (HPC)
[25] = dose: 400.0 mg/kg/injection, schedule: Q04DX003 (ip), vehicle: Klucel (hydroxypropylcellulose) (HPC)
[26] = dose: 25.0 mg/kg/injection, schedule: Q01DX009 (ip), vehicle: saline
[27] = dose: 25.0 mg/kg/injection, schedule: Q04DX003 (ip), vehicle: saline
[28] = dose: 50.0 mg/kg/injection, schedule: Q01DX009 (ip), vehicle: saline
[29] = dose: 50.0 mg/kg/injection, schedule: Q04DX003 (ip), vehicle: saline
[30] = dose: 100.0 mg/kg/injection, schedule: Q01DX009 (ip), vehicle: saline

Measured: T/C

O=C(COC(=O)c1ccccc1)NCCCCc1ccccc1
inactive: [1] 100 % of control | [2] 105 % of control and 91 % of control | dose: 100.0 mg/kg/injection, schedule: Q04DX002 (ip), vehicle: saline with Tween-80 96 % of control | [3] 94 % of control | [4] 89 % of control | [5] 95 % of control and 100 % of control | dose: 200.0 mg/kg/injection, schedule: Q04DX002 (ip), vehicle: saline with Tween-80 99 % of control and 91 % of control | [6] 92 % of control | [7] 94 % of control and 95 % of control | dose: 400.0 mg/kg/injection, schedule: Q04DX002 (ip), vehicle: saline with Tween-80 93 % of control and 86 % of control

N=C(N)SCCCCCSC(=N)N
inactive: [8] 124 % of control | [9] 110 % of control | [10] 109 % of control | [11] 91 % of control

NC(=O)c1c(Br)c(Br)c(Br)c(Br)c1C(=O)O (tested in a mixture with another compound)
inactive: dose: 50.0 mg/kg/injection, schedule: Q04DX003 (ip), vehicle: saline with Tween-80 96 % of control | [3] 91 % of control and 100 % of control and 90 % of control | [6] 93 % of control and 98 % of control | [12] 93 % of control and 90 % of control

CCn1c(C)[n+](CCCOS(=O)(=O)[O-])c2ccccc21
inactive: [13] 97 % of control | [14] 106 % of control

CC(C)CN(OC(=O)c1ccccc1)[N+](=O)[O-]
inactive: dose: 50.0 mg/kg/injection, schedule: Q04DX002 (ip), vehicle: saline 94 % of control | [9] 108 % of control | [11] 102 % of control

NCCc1ccc(O)c(CO)c1
inactive: [9] 105 % of control | [11] 86 % of control | dose: 400.0 mg/kg/injection, schedule: Q04DX002 (ip), vehicle: saline 105 % of control

O=C(OC12CCCCC(CCCC1)O2)c1ccc([N+](=O)[O-])cc1
inactive: [8] 91 % of control | [10] 93 % of control | [15] 98 % of control

COc1ccc(C2C(=O)c3ccc(OC)c(OC)c3C2=O)cc1OC (stereo not drawn)
inactive: [8] 94 % of control | [10] 89 % of control

N/N=C1/CCN2CCCc3cccc1c32
inactive: [3] 101 % of control | [6] 96 % of control

CNC(=O)CCC(=O)NC
inactive: dose: 75.0 mg/kg/injection, schedule: Q04DX003 (ip), vehicle: saline 95 % of control | [13] 100 % of control | dose: 150.0 mg/kg/injection, schedule: Q04DX003 (ip), vehicle: saline 98 % of control | [14] 102 % of control | dose: 300.0 mg/kg/injection, schedule: Q04DX003 (ip), vehicle: saline 95 % of control | [16] 111 % of control

CCOC(=O)CCC(NC(=O)c1cnc(N)s1)C(=O)OCC (stereo not drawn)
inactive: dose: 44.0 mg/kg/injection, schedule: Q01DX001 (ip), vehicle: saline with Tween-80 97 % of control | dose: 66.0 mg/kg/injection, schedule: Q01DX001 (ip), vehicle: saline with Tween-80 97 % of control | [1] 97 % of control | dose: 150.0 mg/kg/injection, schedule: Q01DX001 (ip), vehicle: saline with Tween-80 101 % of control | [4] 93 % of control | dose: 400.0 mg/kg/injection, schedule: Q01DX001 (ip), vehicle: saline with Tween-80 102 % of control

Cc1nc(N)[nH]c(=O)c1CCCNS(=O)(=O)c1ccc(C(=O)O)cc1
inactive: [17] 88 % of control | [18] 112 % of control

COc1cc(NS(=O)(=O)c2ccc(C)cc2)c2c(c1N)C(=O)c1ccccc1C2=O
inactive: [2] 105 % of control | [3] 98 % of control | [5] 94 % of control | [6] 98 % of control | [7] 100 % of control | [12] 93 % of control

Cc1cc2nc(-c3cc4cc(Cl)cc(Cl)c4oc3=O)[nH]c2cc1C
inactive: [19] 108 % of control | [17] 104 % of control | [18] 115 % of control

CC(=O)c1ccc(Cc2ccc(C(C)=O)cc2)cc1
inactive: [20] 98 % of control | [21] 98 % of control | [22] 106 % of control

CSc1ccc(OC(=O)Nc2cc(C)ccc2C)cc1
inactive: [20] 97 % of control | [23] 109 % of control | [21] 107 % of control | [24] 107 % of control | [25] 107 % of control

COC(=O)c1cc([N+](=O)[O-])c(Cl)c([N+](=O)[O-])c1
inactive: dose: 12.5 mg/kg/injection, schedule: Q01DX009 (ip), vehicle: Klucel (hydroxypropylcellulose) (HPC) 98 % of control | dose: 25.0 mg/kg/injection, schedule: Q01DX009 (ip), vehicle: Klucel (hydroxypropylcellulose) (HPC) 87 % of control | [23] 89 % of control

NC(=S)N/N=C(\c1ccc(F)cc1)C1CC1
inactive: dose: 1.0 mg/kg/injection, schedule: Q01DX Z (ip), vehicle: methylcellulose (MC) 92 % of control | dose: 2.0 mg/kg/injection, schedule: Q01DX Z (ip), vehicle: methylcellulose (MC) 101 % of control | dose: 4.0 mg/kg/injection, schedule: Q01DX Z (ip), vehicle: methylcellulose (MC) 97 % of control | dose: 8.0 mg/kg/injection, schedule: Q01DX Z (ip), vehicle: methylcellulose (MC) 93 % of control | dose: 8.0 mg/kg/injection, schedule: Q01DX Z (oral), vehicle: methylcellulose (MC) 100 % of control

Cc1cccc(C)c1-n1c(=S)[nH]n(-c2ccccc2)c1=S
inactive: [2] 91 % of control | [3] 96 % of control | [5] 93 % of control | [6] 96 % of control | [7] 94 % of control | [12] 105 % of control

CCCCCCCC(C)NCCO (stereo not drawn)
inactive: dose: 75.0 mg/kg/injection, schedule: Q01DX001 (ip), vehicle: carboxymethylcellulose (CMC) 98 % of control

CCc1ncc(C)n1Cc1ccccc1
inactive: dose: 6.25 mg/kg/injection, schedule: Q01DX009 (ip), vehicle: saline 109 % of control | dose: 12.5 mg/kg/injection, schedule: Q01DX009 (ip), vehicle: saline 102 % of control | [26] 102 % of control and 115 % of control

CCN(CC)CCOc1ccc(Br)cc1
inactive: [27] 105 % of control | [28] 102 % of control | [29] 100 % of control | [30] 102 % of control | [13] 103 % of control and 111 % of control

COC(=O)CC[N+]12CN3CN(CN(C3)C1)C2
inactive: [8] 91 % of control | [13] 106 % of control | [10] 100 % of control | [14] 106 % of control | [15] 96 % of control | [16] 105 % of control

CCOC(=O)C[n+]1cccc(Br)c1
inactive: dose: 100.0 mg/kg/injection, schedule: Q01DX001 (ip), vehicle: carboxymethylcellulose (CMC) 91 % of control | dose: 200.0 mg/kg/injection, schedule: Q01DX001 (ip), vehicle: carboxymethylcellulose (CMC) 104 % of control | dose: 400.0 mg/kg/injection, schedule: Q01DX001 (ip), vehicle: carboxymethylcellulose (CMC) 104 % of control

CCc1nc(N)ncc1-c1ccc([N+](=O)[O-])cc1O
inactive: [19] 97 % of control | [17] 100 % of control | [18] 90 % of control

CCNC(=O)Nc1ccc(C)cc1C
inactive: [20] 94 % of control | [23] 96 % of control | [21] 103 % of control | [24] 96 % of control | [22] 105 % of control | [25] 95 % of control

COC1(OC)C2CCC1C(OS(=O)(=O)c1ccc(C)cc1)C2 (stereo not drawn)
inactive: [19] 103 % of control | [17] 106 % of control | [18] 100 % of control

CCCCNC(=O)OCC(C)(CCC)COC(N)=O (stereo not drawn)
inactive: [26] 101 % of control | [27] 95 % of control | [28] 101 % of control | [29] 95 % of control | [30] 109 % of control | [13] 101 % of control | dose: 200.0 mg/kg/injection, schedule: Q01DX009 (ip), vehicle: saline 104 % of control | [14] 95 % of control | dose: 400.0 mg/kg/injection, schedule: Q01DX009 (ip), vehicle: saline 103 % of control | [16] 95 % of control
